Entries after “also recorded” stand apart in the source; their conditions may differ.
Columns and labels:
CaM (calmodulin) [1] = molecular target: T1, CaM (calmodulin) (Xenopus laevis, UniProt P0DP33); test: 15N-1H-HSQC NMR titration of 15N-labelled CaM with peptide (with 1D 15N-filtered NMR); assay type: binding, Xenopus laevis (identical to mammalian); conditions: 35°C; for CaM NMR line broadening: CaM:peptide 1:1.5 molar ratio, H2O with 10 mM 2-mercaptoethanol; for NMR exchange regime of CaM-peptide complex: 15N-1H-HSQC, V5p4, V5p5: CaM buffer pH 7.0, V5p2, V5p2n: H2O with 10 mM 2-mercaptoethanol; for CaM domains involved in binding (overall): V6p1: first and second event, pH 7.0, V5p3: 1:1, pH 5.0; for CaM binding affinity (words, from NMR): 1:0–1:3
T1 construct: made in house; host or cells: E. coli AR58 (pTNcoI2 plasmid)
Procedure: (§1) For the titration by synthetic peptides, ^15N-labeled CaM samples with concentration 0.3–0.7 mM were used. CaM and peptides were dissolved in either KCl 50 mM, CaCl2 10 mM, Tris 20 mM pH 7.0 (V5p1s, V6p1, V5p4, V5p5), or 10 mM CaCl2, 10 mM ammonium acetate buffer pH 5.0 (V5p3 and V6p3), or MilliQ water with 10 mM 2-mercaptoethanol (V5p2 and V5p2n).
(§2) The binding of target peptides to CaM was monitored by 2D ^15N-^1H-HSQC spectra. The combination of 1D ^15N-filtered and 1D ^15N-^1H-HSQC experiments was used to assess the ratio of bound and non-bound peptides. ^15N-T1rho experiments were used to estimate the transverse relaxation rates of the CaM resonances during the titration. For sequential assignment of CaM 3D HNCACB and CBCA(CO)NH experiments were performed.
All spectra were recorded at 308 K on Varian Inova 800 MHz or Bruker Avance III 600 MHz spectrometers, each equipped with a cryogenic probe.
All NMR spectra were processed using the NMRpipe suite and analyzed by the program CcpNmr Analysis.

CaM (calmodulin) [2] = molecular target: T1, CaM (calmodulin); test: Tryptophan fluorescence of the peptide upon titration by CaM; assay type: binding, Xenopus laevis (identical to mammalian); conditions: room temperature; for emission maximum: V5p2, W593; for emission maximum without CaM (start of shift): V6p1 W695: CaM buffer pH 7.0, V5p2 W593: H2O with 2-mercaptoethanol pH 7.0 (Table 1), before CaM addition; for shift of emission maximum upon CaM addition: emission 295–405 nm, peptide:CaM 1:0–1:2
Procedure: Fluorescence measurements were performed using a Varian Cary Eclipse fluorescence spectrophotometer (Agilent Technologies, USA), with emission and excitation slit width set to 5 nm. Tryptophan excitation wavelength was set to 282 nm and emission spectra were recorded in the range 295–405 nm. Each spectrum was recorded three times and averaged. Fluorescence intensity contribution from CaM and background intensity from buffer and cuvettes were subtracted for each spectrum. The recorded emission intensities were corrected for dilution effects. All measurements were carried out at room temperature. CaM and peptides stocks were prepared in 50 mM KCl, 10 mM CaCl2 20 mM Tris pH 7.0 buffer. […] For each titration point, the samples were kept at room temperature for 30 min prior to measurements to ensure that the equilibrium was reached.

CaM (calmodulin) [3] = molecular target: T1, CaM (calmodulin); test: 15N-T1rho relaxation of CaM (oligomeric state); parameters: species or system Xenopus laevis (identical to mammalian); conditions: CaM:V5p2 1:1.5 complex
Procedure: as §2
At CaM:V5p2 1:0.75 molar ratio, a significant number of the CaM peaks are doubled and for some peaks substantial line broadening is observed. […] Using the envelope of the well-dispersed, upfield-shifted amide resonances, we obtained T1rho values of ~100 ms for free Ca^2+/CaM which decreased to ~80 ms for CaM in the 1:1.5 complex.

[4] = Peptide solubility / aggregation; assay type: physicochemical; conditions: for solubility: V5p2: at concentrations desired for NMR, V5p3, V6p3: 10 mM CaCl2, 10 mM ammonium acetate pH 5.0; for aggregation / precipitation: aqueous buffer versus water, 2-mercaptoethanol 10 mM tested
Procedure: as §1
^15N-^1H-HSQC spectra of the complexes of CaM with V5p2 at molar ratios 1:0 (black), 1:0.75 (red) and 1:1.5 (blue) are presented in Fig. 5a.
The binding patterns observed for CaM in the two complexes were also very similar (supplementary Fig. 4sC). Low pH (5.0) might influence CaM-peptide interactions but we have not studied the effect of pH in details. As both peptides contain neither tryptophan, nor tyrosine residues, fluorescence measurements were not possible using the native peptides.

CaM (calmodulin) [5] = molecular target: T1, CaM (calmodulin); test: Isothermal titration calorimetry of CaM with peptide; assay type: binding, Xenopus laevis (identical to mammalian); conditions: for K2 (macroscopic binding constant, second event) / K1 (macroscopic binding constant, first event): CaM 15–20 μM in cell; for K1 (macroscopic binding constant, first event): measured at least three times; for ΔS1 / ΔS2: pH 7.0
Description: Peptides corresponding to the amino acid residues 133–154, 310–330, 401–428, 591–612, 696–712 and 696–729 of human TRPV5 and 401–428 and 690–716 of human TRPV6 (cf. Table 1) were purchased from Peptides & elephants GmbH (Potsdam, Germany) and GenicBio Limited (Shanghai, China). All peptides were purified by HPLC (>95% purity) and analyzed by mass-spectrometry. Prior to all experiments, to remove residual TFA, the peptides were dialyzed against an appropriate buffer (dialysis tubing Spectra/Por® 7 with 1 K MWCO; Spectrum Labs, USA).
Expression was induced by a temperature shift from 30 to 42°C and 3–4 h after induction cells were harvested and lysed. Calmodulin was purified by weak anion exchange (DEAE, GE Lifesciences) and affinity chromatography (Phenylsepharose, GE Lifesciences). Purified protein was dialyzed against 1/100 of KCl 50 mM, CaCl2 10 mM, Tris 20 mM pH 7.0, freeze-dried and stored at −20°C. Unless specified differently, all chemicals were obtained from Sigma-Aldrich, USA). Uniformly ^13C and/or ^15N-labelled samples were produced by growing the cells in M9 minimal medium containing 4 g/L ^13C6-glucose and/or 1 g/L ^15N-ammonium chloride (Buchem BV, Apeldoorn, The Netherlands) as the sole source of carbon and/or nitrogen, respectively.
ITC samples were prepared by dissolving CaM and peptides in 50 mM KCl, 10 mM CaCl2, 20 mM Tris pH 7.0 buffer. The concentration of CaM in the cell was 15–20 μM, the concentration of peptides in the syringe exceeded the CaM concentration by 15–20 times. Protein concentrations were determined using a Nanodrop spectrophotometer ND-1000 (Isogen Life Science). ITC experiments were carried out using an ITC200 device (MicroCal Inc., Northampton, MA, USA). After thermal equilibration at 298 K, thirty-nine 1 μl serial injections were performed at 500 rpm stirring speed with an injection spacing of 4 min. To correct the experimental binding isotherm for background heat effects, we also titrated peptide into buffer. All measurements were performed at least three times to determine the optimal experimental conditions with respect to signal-to-noise ratio. In all cases, experiments were consistent and reproducible. ITC data analysis was performed using the Origin 7.0 software supplied by the manufacturer of the ITC. All data were analyzed with “one binding site model” and the “sequential binding site model” implemented in this software package.

CaM-Sepharose = conditions: ref S. Verkaart, private communication; cited from earlier work
Description: In our previous work we studied a long version of the C-terminal TRPV5 peptide 1 (V5p1, residues 696–729 in human TRPV5).

[6] = molecular target: Calmodulin (Homo sapiens) (UniProt P0DP23); test: fluorescence anisotropy; conditions: cited from earlier work
[7] = 15N-1H-HSQC titration, CaM buffer pH 7.0
[8] = association constant, sequential binding sites model, N fixed to 2, 50 mM KCl, 10 mM CaCl2, 20 mM Tris pH 7.0, 298 K
[9] = sequential binding sites model, N fixed to 2, 298 K

ELWRAQVVATTVMLERKLPRCL [V5p2, C-terminal peptide 2, residues 591–612 of human TRPV5]
CaM NMR line broadening (CaM (calmodulin) [1]): many peaks are significantly broadened, some even beyond detection; also recorded: dramatic line broadening in the CaM NMR spectra | emission maximum (CaM (calmodulin) [2]; CaM:peptide 0.75:1 molar ratio): 337 nm | emission maximum (CaM (calmodulin) [2]; further addition of CaM (beyond 0.75:1)): 312 nm | emission maximum without CaM (start of shift) (CaM (calmodulin) [2]; excitation 282 nm): 350 nm | shift of emission maximum upon CaM addition (CaM (calmodulin) [2]; excitation 282 nm): blue-shift in emission maximum | oligomeric state of CaM in complex (CaM (calmodulin) [3]; from T1rho): (predominantly) monomeric state of CaM | 15N-T1rho of CaM (CaM (calmodulin) [3]; upfield-shifted amide resonances, H2O with 10 mM 2-mercaptoethanol): ~ 80 ms | solubility [4]: only soluble in H2O; also recorded: limited solubility; also recorded: soluble in water | aggregation / precipitation [4]: in any buffer other than water precipitate was formed; also recorded: tends to aggregate in aqueous buffer solutions

ELWRAQVVATTVMLERKLPRSL [V5p2n, V5p2 peptide featuring a C611S mutation]
NMR exchange regime of CaM-peptide complex (CaM (calmodulin) [1]): an intermediate exchange regime is retained | CaM NMR line broadening (CaM (calmodulin) [1]): a significant loss of signal is observed | aggregation / precipitation [4]: Neither of these two conditions appears to alter the observed behavior

GLEI PDIFRVGASRYFGKTILGGPFHVI [V5p3, TM23-loop peptide, residues 401–428 of TRPV5, L401G]
CaM domains involved in binding (overall) (CaM (calmodulin) [1]): Residues of both CaM domains were involved in the binding process | solubility [4]: only soluble at pH 5.0

GQTPVKELVSFKWNKYGRPYFS [V5p4, N-terminal peptide 4, residues 310–330 of human TRPV5, C330S]
binding process inferred from curved trajectory of resonances (CaM (calmodulin) [1]; [7]): multiple processes take place during V5p4 binding to CaM | CaM binding affinity (words, from NMR) (CaM (calmodulin) [1]; [7]): relatively weak affinity; also recorded: weak but specific binding to CaM | NMR exchange regime of CaM-peptide complex (CaM (calmodulin) [1]): fast exchange on the NMR timescale | shift of emission maximum upon CaM addition (CaM (calmodulin) [2]; excitation 282 nm): blue shift upon addition of calmodulin

GSHRGWEILRQNTLGHL [V5p1s, short TRPV5 C-terminal peptide 1, residues 696–712 of human TRPV5, S696G]
K2 (macroscopic binding constant, second event) (CaM (calmodulin) [5]; [8]): 2.9 (±1.9) × 10^4 M^−1 | K1 (macroscopic binding constant, first event) (CaM (calmodulin) [5]; [8]): 9.2 (±4.1) × 10^6 M^−1 | ΔS1 (CaM (calmodulin) [5]; [9]): −95.3 cal mol^−1 deg^−1 | ΔS2 (CaM (calmodulin) [5]; [9]): −64.1 cal mol^−1 deg^−1 | CaM residues/domain involved in first binding event (CaM (calmodulin) [1]; 1:1 CaM:peptide, CaM buffer pH 7.0): C-domain of CaM | CaM residues/domain involved in second binding event (CaM (calmodulin) [1]; 1:2 CaM:peptide, CaM buffer pH 7.0): N-domain of CaM | number of distinct binding events (CaM (calmodulin) [1]; 15N-1H-HSQC at CaM:peptide 1:0, 1:1, 1:2, CaM buffer pH 7.0): two binding events | emission maximum λmax (CaM (calmodulin) [2]; W701, peptide:CaM ratio 1:2, 50 mM KCl, 10 mM CaCl2, 20 mM Tris pH 7.0, excitation 282 nm): ~ 324 nm | shift of emission maximum upon CaM addition (CaM (calmodulin) [2]; excitation 282 nm): clear blue-shift of the emission maximum | effect of C-terminal deletion of 17 amino acids on TRPV5 binding to CaM-Sepharose (CaM-Sepharose): did not affect TRPV5 binding to CaM-Sepharose

GSSANWERLRQGTLRRDLRGIINRGLE [V6p1, TRPV6 C-terminal peptide 1, residues 690–716 of human TRPV6, R690G]
comparison of the affinities of the two binding events (CaM (calmodulin) [5]; K1 versus K2, sequential binding sites model): indistinguishable macroscopic binding constants; also recorded: nearly identical affinities | K1 (CaM (calmodulin) [5]; association constant, one binding site model, N allowed to vary, 50 mM KCl, 10 mM CaCl2, 20 mM Tris pH 7.0, 298 K): 1.3 (±0.3) × 10^7 M^−1 | K2 (macroscopic binding constant, second event) (CaM (calmodulin) [5]; [8]): 5.2 (±1.5) × 10^6 M^−1 | K1 (macroscopic binding constant, first event) (CaM (calmodulin) [5]; [8]): 2.2 (±1.7) × 10^6 M^−1 | ΔS1 (CaM (calmodulin) [5]; one binding site model, N allowed to vary, 298 K): −27.7 cal mol^−1 deg^−1 | ΔS1 (CaM (calmodulin) [5]; [9]): −29.6 cal mol^−1 deg^−1 | ΔS2 (CaM (calmodulin) [5]; [9]): −33.0 cal mol^−1 deg^−1 | CaM domains involved in binding (overall) (CaM (calmodulin) [1]): residues from both domains of CaM are involved in the first and the second binding events; also recorded: involves both domains of CaM to a similar extent | emission maximum upon addition of CaM (CaM (calmodulin) [2]; V6p1, W695, CaM titration up to peptide:CaM 1:2, CaM buffer pH 7.0): 324 nm | emission maximum without CaM (start of shift) (CaM (calmodulin) [2]; excitation 282 nm): 358 nm | shift of emission maximum upon CaM addition (CaM (calmodulin) [2]; excitation 282 nm): blue-shift in emission maximum

GVEVPDIFRMGVTRFFGQTILGGPFHVL [V6p3, TM23-loop peptide, residues 401–428 of TRPV6, L401G]
solubility [4]: only soluble at pH 5.0

TRPV5 587-616 (from UniProt Q9NQA5)
Kd [6]: 310 nM

VRALLTRRASVSARATGTAFRR [V5p5, N-terminal peptide 5, residues 133–154 of human TRPV5]
CaM binding affinity (words, from NMR) (CaM (calmodulin) [1]; [7]): relatively weak affinity; also recorded: weak but specific binding to CaM | NMR exchange regime of CaM-peptide complex (CaM (calmodulin) [1]): fast exchange on the NMR timescale

— paper PMC3375010, “The TRPV5/6 calcium channels contain multiple calmodulin binding sites with differential binding properties” (Journal of Structural and Functional Genomics, 2012)
